Source: patent US11040035B2, “3-oxo-2,6-diphenyl-2,3-dihydropyridazine-4-carboxamides” (BAYER PHARMA AKTIENGESELLSCHAFT, priority 2016, dated 2021)

Experiments:
AHR [1] = molecular target: T1, AHR (Homo sapiens, UniProt P35869); assay: In vitro assay 1: antagonism in human cell line (transactivation assay, kynurenic acid prestimulated); conditions: Assay 1: AHR-luc Hum Antagonism IC50 [M], 150 μM kynurenic acid, 20 hours, firefly luciferase
T1 sequence (P35869 11-848): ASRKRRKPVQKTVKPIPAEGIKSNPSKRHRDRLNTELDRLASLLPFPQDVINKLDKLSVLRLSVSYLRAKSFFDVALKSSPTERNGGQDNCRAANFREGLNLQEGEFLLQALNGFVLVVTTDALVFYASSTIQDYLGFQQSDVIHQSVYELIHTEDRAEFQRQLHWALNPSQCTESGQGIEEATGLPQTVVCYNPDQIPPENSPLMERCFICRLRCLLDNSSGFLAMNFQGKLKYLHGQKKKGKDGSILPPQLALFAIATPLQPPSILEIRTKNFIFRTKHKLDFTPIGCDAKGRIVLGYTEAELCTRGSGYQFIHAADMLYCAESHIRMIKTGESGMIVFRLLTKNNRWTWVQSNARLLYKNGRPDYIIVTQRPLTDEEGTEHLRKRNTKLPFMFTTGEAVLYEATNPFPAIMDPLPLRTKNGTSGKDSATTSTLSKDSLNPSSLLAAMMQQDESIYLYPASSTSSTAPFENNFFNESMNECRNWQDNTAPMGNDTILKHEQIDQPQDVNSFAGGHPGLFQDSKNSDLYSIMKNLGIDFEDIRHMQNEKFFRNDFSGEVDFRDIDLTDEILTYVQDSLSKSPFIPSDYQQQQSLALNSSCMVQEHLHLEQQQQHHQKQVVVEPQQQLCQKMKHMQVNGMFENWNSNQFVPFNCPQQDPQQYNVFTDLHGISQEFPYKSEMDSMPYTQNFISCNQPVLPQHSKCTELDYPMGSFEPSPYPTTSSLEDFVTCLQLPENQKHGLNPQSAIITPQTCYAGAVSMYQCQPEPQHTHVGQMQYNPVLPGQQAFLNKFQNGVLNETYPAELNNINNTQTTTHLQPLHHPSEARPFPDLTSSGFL
Protocol: Transactivation assays were carried out in U87 glioblastoma cells (ATCC) endogenously expressing AHR. In addition the cells were stably transfected with an AHR inducible firefly luciferase reporter gene construct that carried AHR-binding sites (DRE) in its promoter and a renilla reporter gene construct with constitutively active promoter. Kynurenic acid is an endogenous AHR activating ligand and was used to prestimulate test cells prior to testing the antagonistic properties of compounds.
In Vitro Assay 1: Antagonism in Human Cell Line
Cells in medium (tryptophan free RPMI, 1% FCS, 2 mM Glutamine) supplemented with 150 μM kynurenic acid were grown for 20 hours in absence (negative control) or presence of increasing concentrations of test compounds (typical dilutions: 72 pmol/L, 0.25 nmol/L, 0.89 nmol/L; 3.1 nmol/L, 11 nmol/L, 38 nmol/L, 130 nmol/L, 470 nmol/L, 1.6 μmol/L, 5.7 μmol/L and 20 μmol/L in duplicates). As positive inhibition control cells supplemented with 150 μM kynurenic acid were incubated in presence of 5 μM Staurosporin. Normalization was done by positive and negative controls.
Firefly luciferase and Renilla activity was determined by the DualGlo Luciferase Assay System (Promega, #2920).

AHR [2] = molecular target: T1, AHR; assay: In vitro assay 2: agonism in human cell line (transactivation assay)
Protocol: Transactivation Assay in Human Cell Line (In Vitro Assays 1 and 2)
Transactivation assays were carried out in U87 glioblastoma cells (ATCC) endogenously expressing AHR. In addition the cells were stably transfected with an AHR inducible firefly luciferase reporter gene construct that carried AHR-binding sites (DRE) in its promoter and a renilla reporter gene construct with constitutively active promoter.
In Vitro Assay 2: Agonism in Human Cell Line
Cells in medium (tryptophan free RPMI, 1% FCS, 2 mM Glutamine) were grown for 20 hours in absence (negative control) or presence of increasing concentrations of test compounds (typical dilutions: 72 pmol/L, 0.25 nmol/L, 0.89 nmol/L; 3.1 nmol/L, 11 nmol/L, 38 nmol/L, 130 nmol/L, 470 nmol/L, 1.6 μmol/L, 5.7 μmol/L and 20 μmol/L in duplicates). As positive activation control cells were incubated with 300 μM kynurenic acid. Normalization was done by positive and negative controls.
Firefly luciferase activity was determined by the SteadyGlo Luciferase Assay System (Promega, #2520).

[3] = read-out: Assay 2: AHR-luc Hum Agonism IC50, no kynurenic acid, 20 hours, firefly luciferase
[4] = Assay 2: AHR-luc Hum Agonism IC50 [M], no kynurenic acid, 20 hours, firefly luciferase

Row | SMILES | IC50 (AHR [1]) [M] | IC50 (AHR [2]; [3]) [M] | IC50 (AHR [2]; [4]) [M]
1 | O=C(NC(CO)C1CCOC1)c1cc(-c2ccc(Cl)c(F)c2)nn(-c2cccc(F)c2)c1=O (single isomer, unassigned) [Example 294, 6-(4-Chloro-3-fluorophenyl)-2-(3-fluorophenyl)-N-[2-hydroxy-1-(tetrahydrofuran-3-yl)ethyl]-3-oxo-2,3-dihydropyridazine-4-carboxamide] | 6.17e-07 | > 2e-05 | –
2 | O=C(NC(CO)C1CCOC1)c1cc(-c2ccc(Cl)c(F)c2)nn(-c2cccc(F)c2)c1=O (single isomer, unassigned) [Example 295, 6-(4-Chloro-3-fluorophenyl)-2-(3-fluorophenyl)-N-[2-hydroxy-1-(tetrahydrofuran-3-yl)ethyl]-3-oxo-2,3-dihydropyridazine-4-carboxamide] | 8.3e-07 | > 2e-05 | –
3 | O=C(NC[C@@H](O)C(F)(F)F)c1cc(-c2ccc(Cl)c(Cl)c2)nn(-c2cccc(F)c2)c1=O (single isomer, unassigned) [Example 299, 6-(3,4-Dichlorophenyl)-2-(3-fluorophenyl)-3-oxo-N-(3,3,3-trifluoro-2-hydroxypropyl)-2,3-dihydropyridazine-4-carboxamide] | 7.42e-07 | – | > 2e-05
4 | O=C(NCC(O)C(F)(F)F)c1cc(-c2ccc(Cl)c(Cl)c2)nn(-c2cccc(F)c2)c1=O (single isomer, unassigned) [Example 308, 6-(3,4-Dichlorophenyl)-2-(3-fluorophenyl)-3-oxo-N-(3,3,3-trifluoro-2-hydroxypropyl)-2,3-dihydropyridazine-4-carboxamide] | 1.77e-07 | – | > 2e-05
5 | O=C(NC(CO)C1CCCO1)c1cc(-c2ccc(Cl)cc2)nn(-c2cccc(F)c2)c1=O (single isomer, unassigned) [Example 316, 1,4-anhydro-5-({[6-(4-chlorophenyl)-2-(3-fluorophenyl)-3-oxo-2,3-dihydropyridazin-4-yl]carbonyl}amino)-2,3,5-trideoxyhexitol] | 3.7e-07 | – | > 2e-05
6 | C[C@@H](O)CCNC(=O)c1cc(-c2ccc(C(F)(F)F)cc2)nn(-c2cccc(F)c2)c1=O (single isomer, unassigned) [Example 330] | 1.21e-07 | – | > 2e-05
7 | O=C(N[C@H]1CC[C@@H]1O)c1cc(-c2ccc(Cl)cc2)nn(-c2cccc(F)c2)c1=O (single isomer, unassigned) [Example 335, (−)-6-(4-chlorophenyl)-2-(3-fluorophenyl)-N-(trans-2-hydroxycyclobutyl)-3-oxo-2,3-dihydropyridazine-4-carboxamide] | 4.05e-07 | – | > 2e-05
8 | O=C(NC(CO)C1CCCO1)c1cc(-c2ccc(C(F)(F)F)cc2)nn(-c2cccc(F)c2)c1=O (single isomer, unassigned) [Example 339, 1,4-anhydro-2,3,5-trideoxy-5-[({2-(3-fluorophenyl)-3-oxo-6-[4-(trifluoromethyl)phenyl]-2,3-dihydropyridazin-4-yl}carbonyl)amino]hexitol] | 4.59e-08 | – | > 2e-05
9 | CC(NC(=O)c1cc(-c2ccc(Cl)cc2)nn(-c2cccc(F)c2)c1=O)C(O)CO (single isomer, unassigned) [Example 346, 6-(4-chlorophenyl)-N-(3,4-dihydroxybutan-2-yl)-2-(3-fluorophenyl)-3-oxo-2,3-dihydropyridazine-4-carboxamide] | 1.98e-07 | – | > 2e-05
10 | CC(NC(=O)c1cc(-c2ccc(Cl)cc2)nn(-c2cccc(F)c2)c1=O)C(O)CO (single isomer, unassigned) [Example 347, 6-(4-chlorophenyl)-N-(3,4-dihydroxybutan-2-yl)-2-(3-fluorophenyl)-3-oxo-2,3-dihydropyridazine-4-carboxamide] | 1.69e-07 | > 2e-05 | –
11 | CC(O)C(NC(=O)c1cc(-c2ccc(C(F)(F)F)cc2)nn(-c2cccc(F)c2)c1=O)C(F)(F)F (single isomer, unassigned) [Example 349, 2-(3-fluorophenyl)-3-oxo-N-(1,1,1-trifluoro-3-hydroxybutan-2-yl)-6-[4-(trifluoromethyl)phenyl]-2,3-dihydropyridazine-4-carboxamide] | 3.54e-09 | – | > 2e-05
12 | CC(O)C(NC(=O)c1cc(-c2ccc(C(F)(F)F)cc2)nn(-c2cccc(F)c2)c1=O)C(F)(F)F (single isomer, unassigned) [Example 350, 2-(3-fluorophenyl)-3-oxo-N-(1,1,1-trifluoro-3-hydroxybutan-2-yl)-6-[4-(trifluoromethyl)phenyl]-2,3-dihydropyridazine-4-carboxamide] | 2.08e-07 | > 2e-05 | –
13 | O=C(N[C@@H]1CC[C@@H]1O)c1cc(-c2ccc(Cl)cc2)nn(-c2cccc(F)c2)c1=O (single isomer, unassigned) [Example 358] | 1.15e-07 | – | > 2e-05
14 | CC(NC(=O)c1cc(-c2ccc(Cl)cc2)nn(-c2cccc(F)c2)c1=O)C(O)CO (single isomer, unassigned) [Example 359, 6-(4-chlorophenyl)-N-(3,4-dihydroxybutan-2-yl)-2-(3-fluorophenyl)-3-oxo-2,3-dihydropyridazine-4-carboxamide] | 2.67e-08 | > 2e-05 | –
15 | CC(NC(=O)c1cc(-c2ccc(Cl)cc2)nn(-c2cccc(F)c2)c1=O)C(O)CO (single isomer, unassigned) [Example 360, 6-(4-chlorophenyl)-N-(3,4-dihydroxybutan-2-yl)-2-(3-fluorophenyl)-3-oxo-2,3-dihydropyridazine-4-carboxamide] | 1.39e-08 | > 2e-05 | –
16 | N#Cc1cccc(-n2nc(-c3ccc(Cl)cc3)cc(C(=O)NCC(O)C(F)(F)F)c2=O)c1 (single isomer, unassigned) [Example 363, 6-(4-chlorophenyl)-2-(3-cyanophenyl)-3-oxo-N-(3,3,3-trifluoro-2-hydroxypropyl)-2,3-dihydropyridazine-4-carboxamide] | 2.22e-07 | – | > 2e-05
17 | N#Cc1cccc(-n2nc(-c3ccc(Cl)cc3)cc(C(=O)NCC(O)C(F)(F)F)c2=O)c1 (single isomer, unassigned) [Example 364, 6-(4-chlorophenyl)-2-(3-cyanophenyl)-3-oxo-N-(3,3,3-trifluoro-2-hydroxypropyl)-2,3-dihydropyridazine-4-carboxamide] | 5.72e-07 | > 2e-05 | –
18 | Cc1cccc(-n2nc(-c3ccc(Cl)cc3)cc(C(=O)NCC(O)C(F)(F)F)c2=O)c1 (single isomer, unassigned) [Example 367, 6-(4-chlorophenyl)-2-(3-methylphenyl)-3-oxo-N-(3,3,3-trifluoro-2-hydroxypropyl)-2,3-dihydropyridazine 4-carboxamide] | 5e-07 | – | > 2e-05
19 | Cc1cccc(-n2nc(-c3ccc(Cl)cc3)cc(C(=O)NCC(O)C(F)(F)F)c2=O)c1 (single isomer, unassigned) [Example 368, 6-(4-chlorophenyl)-2-(3-methylphenyl)-3-oxo-N-(3,3,3-trifluoro-2-hydroxypropyl)-2,3-dihydropyridazine-4-carboxamide] | 1.86e-06 | > 2e-05 | –
20 | O=C(N[C@H]1COC[C@H]1O)c1cc(-c2ccc(Cl)cc2)nn(-c2cccc(F)c2)c1=O (single isomer, unassigned) [Example 384, 6-(4-chlorophenyl)-2-(3-fluorophenyl)-N-[cis-4-hydroxytetrahydrofuran-3-yl]-3-oxo-2,3-dihydropyridazine-4-carboxamide] | 2.4e-08 | – | > 2e-05
21 | O=C(N[C@H]1COC[C@H]1O)c1cc(-c2ccc(Cl)cc2)nn(-c2cccc(F)c2)c1=O (single isomer, unassigned) [Example 385, 6-(4-chlorophenyl)-2-(3-fluorophenyl)-N-[cis-4-hydroxytetrahydrofuran-3-yl]-3-oxo-2,3-dihydropyridazine-4-carboxamide] | 8.8e-08 | > 2e-05 | –
22 | O=C(NCC(O)C(F)(F)F)c1cc(-c2ccc(Cl)c(F)c2)nn(-c2cc(F)cc(F)c2)c1=O (single isomer, unassigned) [Example 404, 6-(4-chloro-3-fluorophenyl)-2-(3,5-difluorophenyl)-3-oxo-N-(3,3,3-trifluoro-2-hydroxypropyl)-2,3-dihydropyridazine-4-carboxamide] | 2.7e-07 | – | > 2e-05
23 | O=C(NCC(O)C1CC1)c1cc(-c2ccc(Cl)cc2)nn(-c2cccc(F)c2)c1=O (single isomer, unassigned; (+)) [Example 192, (+)-6-(4-Chlorophenyl)-N-(2-cyclopropyl-2-hydroxyethyl)-2-(3-fluorophenyl)-3-oxo-2,3-dihydropyridazine-4-carboxamide] | 1.97e-07 | > 2e-05 | –
